# Data taken from US9302999B2, “Substituted triazoles as herbicides” (E. I. DU PONT DE NEMOURS AND COMPANY, priority 2012, dated 2016).
# Experiments:
# Type in all cases: in vivo
# [1] = test system: chickweed (common chickweed, Stellaria media); experiment: Test D pre-/postemergence: chickweed; conditions: Postemergence
# Description: (§1) Seeds of plant species selected from bluegrass (annual bluegrass, Poa annua), blackgrass (Alopecurus myosuroides), canarygrass (Phalaris minor), chickweed (common chickweed, Stellaria media), galium (catchweed bedstraw, Galium aparine), bromegrass, downy (downy bromegrass, Bromus tectorum), field poppy (Papaver rhoeas), field violet (Viola arvensis), foxtail, green (green foxtail, Setaria viridis), deadnettle (henbit deadnettle, Lamium amplexicaule), ryegrass, Italian (Italian ryegrass, Lolium multiflorum), kochia (Kochia scoparia), lambsquarters (Chenopodium album), oilseed rape (Brassica napus), pigweed (Amaranthus retroflexus), Russian thistle (Salsola iberica), chamomile (scentless chamomile, Matricaria inodora), speedwell (bird's-eye speedwell, Veronica persica), barley, spring (spring barley, Hordeum vulgare), wheat, spring (spring wheat, Triticum aestivum), buckwheat, wild (wild buckwheat, Polygonum convolvulus), mustard, wild (wild mustard, Sinapis arvensis), oat, wild (wild oat, Avena fatua), radish, wild (wild radish, Raphanus raphanistrum), windgrass (Apera spica-venti), barley, winter (winter barley, Hordeum vulgare), and wheat, winter (winter wheat, Triticum aestivum) were planted into a silt loam soil and treated preemergence with test chemicals formulated in a non-phytotoxic solvent mixture which included a surfactant. At the same time, these same crop and weed species were planted in pots containing the planting medium comprising spaghnum peat moss, vermiculite, wetting agent and starter nutrients and treated with postemergence applications of the test chemicals formulated in the same manner. Plants ranged in height from 2 to 18 cm (1- to 4-leaf stage).
# (§2) Treated plants and controls were maintained in a controlled growth environment for 14 to 21 days after which time all species were compared to controls and visually evaluated. Plant response ratings, summarized in Table D, are based on a scale of 0 to 100 where 0 is no effect and 100 is complete control. A dash (-) response means no test result.
# [2] = test system: field poppy (Papaver rhoeas); experiment: Test D pre-/postemergence: field poppy; conditions: Postemergence
# Description: as §1, §2
# [3] = test system: field violet (Viola arvensis); experiment: Test D pre-/postemergence: field violet; conditions: Postemergence
# Description: as §1, §2
# [4] = test system: buckwheat, wild (wild buckwheat, Polygonum convolvulus); experiment: Test D pre-/postemergence: buckwheat, wild; conditions: Postemergence
# Procedure, shortened: (§3)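 We sprayed chemicals in a surfactant-containing solvent onto silt loam at planting (preemergence) and onto 1- to 4-leaf seedlings (postemergence). Fourteen to 21 days later, each species was rated visually from 0 to 100 relative to controls.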
# [5] = test system: oat, wild (wild oat, Avena fatua); experiment: Test D pre-/postemergence: oat, wild; conditions: Postemergence
# Procedure, shortened: as §3
# soybean (Glycine max) = experiment: Test F pre-/postemergence: soybean
# Description: (§4) Seeds of plant species selected from corn (Zea mays), soybean (Glycine max), velvetleaf (Abutilon theophrasti), lambsquarters (Chenopodium album), poinsettia, wild (wild poinsettia, Euphorbia heterophylla), pigweed, palmer (palmer pigweed, Amaranthus palmeri), waterhemp (common waterhemp, Amaranthus rudis), surinam grass (Brachiaria decumbens), crabgrass, Brazil (Brazilian crabgrass, Digitaria horizontalis), panicum, fall (fall panicum Panicum dichotomiflorum), crabgrass, large (large crabgrass, Digitaria sanguinalis), foxtail, giant (giant foxtail, Setaria faberii), foxtail, green (green foxtail Setaria viridis), goosegrass (Eleusine indica), ragweed (common ragweed, Ambrosia elatior), barnyardgrass (Echinochloa crus-galli), sandbur (southern sandbur, Cenchrus echinatus), arrowleaf sida (Sida rhombifolia), ryegrass, Italian (Italian ryegrass, Lolium multiflorum), dayflower, VA (Virginia (VA) dayflower, Commelina virginica), field bindweed (Convolvulus arvensis), cocklebur (common cocklebur, Xanthium strumarium), morningglory (Ipomoea coccinea), nightshade (eastern black nightshade, Solanum ptycanthum), kochia (Kochia scoparia), nutsedge, yellow (yellow nutsedge, Cyperus esculentus), johnsongrass (Sorghum halepense), smartweed (ladysthumb smartweed, Polygonum persicaria), and beggarticks (hairy beggarticks, Bidens pilosa), were planted into a silt loam soil and treated preemergence with test chemicals formulated in a non-phytotoxic solvent mixture which included a surfactant. At the same time, plants selected from these crop and weed species and also pigweed (Amaranthus retroflexus), waterhemp_RES1 (ALS/Triazine resistant common waterhemp, Amaranthus rudis) and waterhemp_RES2 (ALS/HPPD resistant common waterhemp, Amaranthus rudis) were planted in pots containing a planting medium comprising spaghnum peat moss, vermiculite, wetting agent and starter nutrients treated with postemergence applications of some of the test chemicals formulated in the same manner. Plants ranged in height from 2 to 18 cm for postemergence treatments (1- to 4-leaf stage).
# as §2, with “greenhouse” for “controlled growth environment”, “days,” for “days”, “E,” for “D,”
# [6] = test system: nightshade (eastern black nightshade, Solanum ptycanthum); experiment: Test F pre-/postemergence: nightshade; conditions: Preemergence
# Description: as §4
# as §2, with “greenhouse” for “controlled growth environment”, “days,” for “days”, “E,” for “D,”
# [7] = test system: crabgrass, Brazil (Brazilian crabgrass, Digitaria horizontalis); experiment: Test F pre-/postemergence: crabgrass, Brazil; conditions: Postemergence, scale 0 to 100
# Description: as §4
# as §2, with “greenhouse” for “controlled growth environment”, “days,” for “days”, “E,” for “D,”
# [8] = 31 g ai/ha, scale 0 to 100 (0 no effect, 100 complete control)
# [9] = 62 g ai/ha, scale 0 to 100 (0 no effect, 100 complete control)
# [10] = 125 g ai/ha, scale 0 to 100, 0 no effect, 100 complete control
# [11] = 250 g ai/ha, scale 0 to 100 (0 no effect, 100 complete control)
# [12] = Preemergence, 16 g ai/ha, scale 0 to 100, 0 no effect, 100 complete control
# [13] = Preemergence, 31 g ai/ha, scale 0 to 100, 0 no effect, 100 complete control
# [14] = Preemergence, 125 g ai/ha, scale 0 to 100
# [15] = Preemergence, 250 g ai/ha, scale 0 to 100
# [16] = 16 g ai/ha, scale 0 to 100, 0 no effect, 100 complete control
# [17] = 31 g ai/ha, scale 0 to 100, 0 no effect, 100 complete control
structure (smiles),measurement,setting,value
COc1nn(-c2ccc(C(F)(F)F)cc2)nc1Cc1ccnc(C(F)F)c1 [Compound 138],Plant response rating: Chickweed,[1]; [8],60
same,Plant response rating: Chickweed,[1]; [9],85
same,Plant response rating: Chickweed,[1]; [10],95
same,Plant response rating: Chickweed,[1]; [11],100
same,"Plant response rating, Chickweed","[1]; 16 g ai/ha, scale 0 to 100",60
same,Plant response rating: Field Poppy,[2]; [8],90
same,Plant response rating: Field Poppy,[2]; [9],90
same,Plant response rating: Field Poppy,[2]; [10],100
same,Plant response rating: Field Poppy,[2]; [11],100
same,"Plant response rating, Field Poppy","[2]; 16 g ai/ha, scale 0 to 100",80
same,Plant response rating: Field Violet,[3]; [8],70
same,Plant response rating: Field Violet,[3]; [9],75
same,Plant response rating: Field Violet,[3]; [10],85
same,Plant response rating: Field Violet,[3]; [11],90
same,"Plant response rating, Field Violet","[3]; 16 g ai/ha, scale 0 to 100",60
same,"Plant response rating: Buckwheat, Wild",[4]; [8],40
same,"Plant response rating: Buckwheat, Wild",[4]; [9],50
same,"Plant response rating: Buckwheat, Wild",[4]; [10],80
same,"Plant response rating: Buckwheat, Wild",[4]; [11],80
same,"Plant response rating, Buckwheat, Wild","[4]; 16 g ai/ha, scale 0 to 100",40
same,"Plant response rating: Oat, Wild",[5]; [8],20
same,"Plant response rating: Oat, Wild",[5]; [9],30
same,"Plant response rating: Oat, Wild",[5]; [10],50
same,"Plant response rating: Oat, Wild",[5]; [11],75
same,"Plant response rating, Oat, Wild","[5]; 16 g ai/ha, scale 0 to 100",10
COc1nn(-c2cccc(F)c2)nc1Cc1ccnc(C(F)(F)F)c1 [Compound 139],"Plant response rating, Soybean",soybean (Glycine max); [12],0
same,"Plant response rating, Soybean",soybean (Glycine max); [13],0
same,"Plant response rating, Soybean",soybean (Glycine max); [14],0
same,"Plant response rating, Soybean",soybean (Glycine max); [15],35
same,"Plant response rating, Nightshade",[6]; [16],20
same,"Plant response rating, Nightshade",[6]; [17],35
same,"Plant response rating, Nightshade","[6]; 125 g ai/ha, scale 0 to 100",100
same,"Plant response rating, Nightshade","[6]; 250 g ai/ha, scale 0 to 100",100
Cc1nn(-c2ccnc(Cl)c2)nc1Cc1ccnc(C(F)(F)F)c1 [Compound 141],"Plant response rating, Soybean","soybean (Glycine max); Postemergence, 8 g ai/ha, scale 0 to 100",50
same,"Plant response rating, Soybean","soybean (Glycine max); Postemergence, 16 g ai/ha, scale 0 to 100",70
same,"Plant response rating, Soybean","soybean (Glycine max); Postemergence, 31 g ai/ha, scale 0 to 100",80
same,"Plant response rating, Soybean","soybean (Glycine max); Postemergence, 125 g ai/ha, scale 0 to 100",85
same,"Plant response rating, Crabgrass, Brazil",[7]; 8 g ai/ha,70
same,"Plant response rating, Crabgrass, Brazil",[7]; 16 g ai/ha,80
same,"Plant response rating, Crabgrass, Brazil",[7]; 31 g ai/ha,95
same,"Plant response rating, Crabgrass, Brazil",[7]; 62 g ai/ha,95
same,"Plant response rating, Crabgrass, Brazil",[7]; 125 g ai/ha,95
Cc1nn(-c2ccc(F)cc2F)nc1Oc1ccnc(C(F)(F)F)c1 [Compound 146],"Plant response rating, Soybean",soybean (Glycine max); [12],0
same,"Plant response rating, Soybean",soybean (Glycine max); [13],0
same,"Plant response rating, Soybean",soybean (Glycine max); [14],0
same,"Plant response rating, Soybean",soybean (Glycine max); [15],0
same,"Plant response rating, Nightshade",[6]; [16],0
same,"Plant response rating, Nightshade",[6]; [17],10
same,"Plant response rating, Nightshade","[6]; 125 g ai/ha, scale 0 to 100",65
same,"Plant response rating, Nightshade","[6]; 250 g ai/ha, scale 0 to 100",100
